{"source": "patent US9505728B2", "about": "“Triazolone compounds and uses thereof” (INCEPTION 2, INC., priority 2012, dated 2016)"}
{"biological_target": "T1, Human PPARα (Homo sapiens, UniProt Q07869)", "T1 construct": "host or cells: proprietary non-human mammalian cells", "T1 sequence (Q07869 1-468)": "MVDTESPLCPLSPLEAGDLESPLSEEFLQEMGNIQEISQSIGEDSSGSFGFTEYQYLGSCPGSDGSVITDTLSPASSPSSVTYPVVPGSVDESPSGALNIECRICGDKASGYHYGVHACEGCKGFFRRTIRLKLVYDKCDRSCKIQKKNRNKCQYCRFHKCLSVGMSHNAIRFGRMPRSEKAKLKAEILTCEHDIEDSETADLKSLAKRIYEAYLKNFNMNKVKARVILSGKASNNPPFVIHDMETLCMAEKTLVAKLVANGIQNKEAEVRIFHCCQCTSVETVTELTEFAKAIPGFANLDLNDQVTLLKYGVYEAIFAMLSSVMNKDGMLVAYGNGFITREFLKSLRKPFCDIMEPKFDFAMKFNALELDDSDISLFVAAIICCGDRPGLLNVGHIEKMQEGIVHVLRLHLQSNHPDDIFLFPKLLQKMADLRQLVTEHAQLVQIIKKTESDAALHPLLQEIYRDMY", "test": "Human PPARα Reporter Assay (luciferase)", "format": "cell-based", "conditions": "human PPARα reporter cells, overnight incubation, antagonism; read-out: Luciferase IC50", "summary_of_the_method": "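Agonist or antagonist activity read as luciferase light from engineered reporter cells carrying human PPARα and a responsive reporter gene. Cells got compound immediately on dispensing, incubated overnight, then treatment media swapped for luciferase detection reagent.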", "units": {"IC50": "nM"}}
{"smiles": "CCn1c(CCCc2ccc(-c3ccc(OC(F)(F)F)c(CC(=O)O)c3)cc2)nn(Cc2ccc(C(C)(C)C)cc2)c1=O", "note": "[Example 130, 2-(4′-(3-(1-(4-(tert-Butyl)benzyl)-4-ethyl-5-oxo-4,5-dihydro-1H-1,2,4-triazol-3-yl)propyl)-4-(trifluoromethoxy)-[1,1′-biphenyl]-3-yl)acetic acid]", "IC50": 11}
{"smiles": "CCn1c(CCCc2ccc(-c3ccc(OC(F)(F)F)c(C(=O)O)c3)cc2)nn(Cc2ccc(C(C)(C)C)cc2)c1=O", "note": "[Example 131, 4′-(3-(1-(4-(tert-Butyl)benzyl)-4-ethyl-5-oxo-4,5-dihydro-1H-1,2,4-triazol-3-yl)propyl)-4-(trifluoromethoxy)-[1,1′-biphenyl]-3-carboxylic acid]", "IC50": 15}
{"smiles": "CCn1c(CCCc2ccc(-c3ccc(C)c(C(=O)O)c3)cc2)nn(Cc2ccc(C(C)(C)C)cc2)c1=O", "note": "[Example 132, 4′-(3-(1-(4-(tert-Butyl)benzyl)-4-ethyl-5-oxo-4,5-dihydro-1H-1,2,4-triazol-3-yl)propyl)-4-methyl-[1,1′-biphenyl]-3-carboxylic acid]", "IC50": 12}
{"smiles": "CCn1c(CCCc2ccc(-c3ccc(OC)c(C4(C(=O)O)CCC4)c3)cc2)nn(Cc2ccc(C(C)(C)C)cc2)c1=O", "note": "[Example 133, 1-(4′-(3-(1-(4-(tert-Butyl)benzyl)-4-ethyl-5-oxo-4,5-dihydro-1H-1,2,4-triazol-3-yl)propyl)-4-methoxy-[1,1′-biphenyl]-3-yl)cyclobutanecarboxylic acid]", "IC50": 597}
{"smiles": "CCn1c(CCCc2ccc(-c3ccc(C(F)(F)F)c(C(=O)O)c3)cc2)nn(Cc2ccc(C(C)(C)C)cc2)c1=O", "note": "[Example 134, 4′-(3-(1-(4-(tert-Butyl)benzyl)-4-ethyl-5-oxo-4,5-dihydro-1H-1,2,4-triazol-3-yl)propyl)-4-(trifluoromethyl)-[1,1′-biphenyl]-3-carboxylic acid]", "IC50": 109}
{"smiles": "CCn1c(CCCc2ccc(-c3ccc(OC)c(CC(=O)NS(C)(=O)=O)c3)cc2)nn(Cc2ccc(C(C)(C)C)cc2)c1=O", "note": "[Example 135, 2-(4′-(3-(1-(4-(tert-Butyl)benzyl)-4-ethyl-5-oxo-4,5-dihydro-1H-1,2,4-triazol-3-yl)propyl)-4-methoxy-[1,1′-biphenyl]-3-yl)-N-(methylsulfonyl)acetamide]", "IC50": 192}
{"smiles": "CCn1c(CCCc2ccc(-c3ccc(OC)c(CC(=O)NS(=O)(=O)c4ccccc4)c3)cc2)nn(Cc2ccc(C(C)(C)C)cc2)c1=O", "note": "[Example 136, 2-(4′-(3-(1-(4-(tert-Butyl)benzyl)-4-ethyl-5-oxo-4,5-dihydro-1H-1,2,4-triazol-3-yl)propyl)-4-methoxy-[1,1′-biphenyl]-3-yl)-N-(phenylsulfonyl)acetamide]", "IC50": 41}
{"smiles": "CCn1c(CCCc2ccc(-c3ccc(C4(C(=O)O)CC4)cc3)cc2)nn(Cc2ccc(C(C)(C)C)cc2)c1=O", "note": "[Example 137, 1-(4′-(3-(1-(4-(tert-Butyl)benzyl)-4-ethyl-5-oxo-4,5-dihydro-1H-1,2,4-triazol-3-yl)propyl)-[1,1′-biphenyl]-4-yl)cyclopropanecarboxylic acid]", "IC50": 676}
{"smiles": "CCn1c(CCCc2ccc(-c3ccnc(NS(=O)(=O)c4ccccc4)n3)cc2)nn(Cc2ccc(C(C)(C)C)cc2)c1=O", "note": "[Example 138, N-(4-(4-(3-(1-(4-(tert-Butyl)benzyl)-4-ethyl-5-oxo-4,5-dihydro-1H-1,2,4-triazol-3-yl)propyl)phenyl)pyrimidin-2-yl)benzenesulfonamide]", "IC50": 33}
{"smiles": "CCn1c(CCCc2ccc(-c3ccc(OC)c(C(=O)O)n3)cc2)nn(Cc2ccc(C(C)(C)C)cc2)c1=O", "note": "[Example 139, 6-(4-(3-(1-(4-(tert-Butyl)benzyl)-4-ethyl-5-oxo-4,5-dihydro-1H-1,2,4-triazol-3-yl)propyl)phenyl)-3-methoxypicolinic acid]", "IC50": 89}
{"smiles": "CCn1c(CCCc2ccc(-c3cc(C(=O)O)c(OC)cn3)cc2)nn(Cc2ccc(C(C)(C)C)cc2)c1=O", "note": "[Example 140, 2-(4-(3-(1-(4-(tert-Butyl)benzyl)-4-ethyl-5-oxo-4,5-dihydro-1H-1,2,4-triazol-3-yl)propyl)phenyl)-5-methoxyisonicotinic acid]", "IC50": 396}
{"smiles": "CCn1c(CCCc2ccc(-c3ccc(OC)c([C@@H](C)C(=O)O)c3)cc2)nn(Cc2ccc(C(C)(C)C)cc2)c1=O", "note": "[Example 141, (R)-2-(4′-(3-(1-(4-(tert-Butyl)benzyl)-4-ethyl-5-oxo-4,5-dihydro-1H-1,2,4-triazol-3-yl)propyl)-4-methoxy-[1,1′-biphenyl]-3-yl)propanoic acid]", "IC50": 29}
{"smiles": "CCn1c(CCCc2ccc(-c3ccc(OC)c([C@H](C)C(=O)O)c3)cc2)nn(Cc2ccc(C(C)(C)C)cc2)c1=O", "note": "[Example 142, (S)-2-(4′-(3-(1-(4-(tert-Butyl)benzyl)-4-ethyl-5-oxo-4,5-dihydro-1H-1,2,4-triazol-3-yl)propyl)-4-methoxy-[1,1′-biphenyl]-3-yl)propanoic acid]", "IC50": 272}
{"smiles": "CCn1c(CCCc2ccc(-c3ccc(C4(F)COC4)cc3)cc2)nn(Cc2ccc(C(C)(C)C)cc2)c1=O", "note": "[Example 143, 1-(4-(tert-Butyl)benzyl)-4-ethyl-3-(3-(4%(3-fluorooxetan-3-yl)-[1,1′-biphenyl]-4-yl)propyl)-1H-1,2,4-triazol-5(4H)-one]", "IC50": 101}
{"smiles": "CCn1c(CCCc2ccc(-c3ccc(OC)c(CC(=O)O)n3)cc2)nn(Cc2ccc(C(C)(C)C)cc2)c1=O", "note": "[Example 144, 2-(6-(4-(3-(1-(4-(tert-Butyl)benzyl)-4-ethyl-5-oxo-4,5-dihydro-1H-1,2,4-triazol-3-yl)propyl)phenyl)-3-methoxypyridin-2-yl)acetic acid]", "IC50": 114}
{"smiles": "CCn1c(CCCc2ccc(-c3ccc(OC)c(CC(=O)O)c3)c(O)c2)nn(Cc2ccc(C(C)(C)C)cc2)c1=O", "note": "[Example 145, 2-(4′-(3-(1-(4-(tert-Butyl)benzyl)-4-ethyl-5-oxo-4,5-dihydro-1H-1,2,4-triazol-3-yl)propyl)-2′-hydroxy-4-methoxy-[1,1′-biphenyl]-3-yl) acetic acid]", "IC50": 692}
{"smiles": "CCn1c(CCCc2ccc(-c3ccc(OC)c(CC(=O)O)c3)cc2O)nn(Cc2ccc(C(C)(C)C)cc2)c1=O", "note": "[Example 146, 2-(4′-(3-(1-(4-(tert-Butyl)benzyl)-4-ethyl-5-oxo-4,5-dihydro-1H-1,2,4-triazol-3-yl)propyl)-3′-hydroxy-4-methoxy-[1,1′-biphenyl]-3-yl) acetic acid]", "IC50": 98}
{"smiles": "CCn1c(CCCc2ccc(-c3ccc(OC)c(N)c3)cc2)nn(Cc2ccc(C(C)(C)C)cc2)c1=O", "note": "[Example 147, 3-(3-(3′-Amino-4′-methoxy-[1,1′-biphenyl]-4-yl)propyl)-1-(4-(tert-butyl)benzyl)-4-ethyl-1H-1,2,4-triazol-5(4H)-one]", "IC50": 85}
{"smiles": "CCn1c(CCCc2ccc(-c3ccc(C(F)(F)F)c(N)c3)cc2)nn(Cc2ccc(C(C)(C)C)cc2)c1=O", "note": "[Example 148, 3-(3-(3′-Amino-4′-(trifluoromethyl)-[1,1′-biphenyl]-4-yl)propyl)-1-(4-(tert-butyl)benzyl)-4-ethyl-1H-1,2,4-triazol-5(4H)-one]", "IC50": 241}
{"smiles": "CCn1c(CCCc2ccc(-c3ccc(C)c(N)c3)cc2)nn(Cc2ccc(C(C)(C)C)cc2)c1=O", "note": "[Example 149, 3-(3-(3′-Amino-4′-methyl-[1,1′-biphenyl]-4-yl)propyl)-1-(4-(tert-butyl)benzyl)-4-ethyl-1H-1,2,4-triazol-5(4H)-one]", "IC50": 161}
{"smiles": "CCn1c(CCCc2ccc(-c3ccc(OC)c(CC(=O)O)c3)c(C(F)(F)F)c2)nn(Cc2ccc(C(C)(C)C)cc2)c1=O", "note": "[Example 150, 2-(4′-(3-(1-(4-(tert-Butyl)benzyl)-4-ethyl-5-oxo-4,5-dihydro-1H-1,2,4-triazol-3-yl)propyl)-4-methoxy-2′-(trifluoromethyl)-[1,1′-biphenyl]-3-yl) acetic acid]", "IC50": 126}
{"smiles": "CCn1c(CCCc2ccc(-c3ccc(OC)c(NS(=O)(=O)c4ccccc4)c3)cc2)nn(Cc2ccc(C(C)(C)C)cc2)c1=O", "note": "[Example 151, 1-{[4-(tert-Butyl)phenyl]methyl}-4-ethyl-3-[3-(4-{4-methoxy-3-[(phenylsulfonyl)amino]phenyl}phenyl)propyl]-1,2,4-triazolin-5-one]", "IC50": 61}
{"smiles": "CCn1c(CCCc2ccc(-c3ccc(C)c(NS(=O)(=O)c4ccccc4)c3)cc2)nn(Cc2ccc(C(C)(C)C)cc2)c1=O", "note": "[Example 152, 1-{[4-(tert-Butyl)phenyl]methyl}-4-ethyl-3-[3-(4-{4-methyl-3-[(phenylsulfonyl)amino]phenyl}phenyl)propyl]-1,2,4-triazolin-5-one]", "IC50": 160}
{"smiles": "CCn1c(CCCc2ccc(-c3cccc(NC(=O)Nc4ccccc4)n3)cc2)nn(Cc2ccc(C(C)(C)C)cc2)c1=O", "note": "[Example 153, 1-(6-(4-(3-(1-(4-(tert-Butyl)benzyl)-4-ethyl-5-oxo-4,5-dihydro-1H-1,2,4-triazol-3-yl)propyl)phenyl)pyridin-2-yl)-3-phenylurea]", "IC50": 947}
{"smiles": "CCn1c(CCCc2ccc(-c3cccc(NC(=O)NS(=O)(=O)c4ccccc4)n3)cc2)nn(Cc2ccc(C(C)(C)C)cc2)c1=O", "note": "[Example 154, N-((6-(4-(3-(1-(4-(tert-Butyl)benzyl)-4-ethyl-5-oxo-4,5-dihydro-1H-1,2,4-triazol-3-yl)propyl)phenyl)pyridin-2-yl)carbamoyl)benzenesulfonamide]", "IC50": 241}
